Test results as given in US7868015B2, “Phosphodiesesterase 4 inhibitors for the treatment of a cognitive deficit” (Cold Spring Harbor Laboratory, priority 2000, dated 2011).
Entries after “also recorded” stand apart in the source; their conditions may differ.

Key:
[1] = tested on: CRE-luciferase reporter gene in human neuroblastoma cells; experiment: CRE-luciferase reporter gene assay, forskolin-stimulated human neuroblastoma cells; type: cell-based; conditions: for effect on CRE-luciferase expression: FIG. 2, in words; for increase of forskolin-induced CRE-luciferase expression above forskolin alone: drug for two hours before suboptimal dose of forskolin, assayed 4 hours after forskolin stimulation (FIG. 2A)
Excerpt: FIG. 2A is a bar graph representation depicting results showing that the PDE4 inhibitors rolipram and HT0712 enhance forskolin-induced gene expression in human neuroblastoma cells. Relative light units (RLU) emitted from luciferase were quantified in human neuroblastoma cells stably transfected with a CRE-luciferase reporter gene and exposed to vehicle alone or drug (HT0712 or rolipram) for two hours before stimulation by a suboptimal dose of forskolin.
A high-throughput drug screen was accomplished using human neuroblastoma cells, which were stably transfected with a luciferase reporter gene driven by a CRE (cAMP response element) promoter (a drug screen for enhancers of CREB function) (Scott, R. et al., J. Mol. Neurosci., 19:171-177 (2002)). Cells were exposed to drug for two hours and then stimulated with a suboptimal dose of forskolin for another four hours. […] Among the dozens of confirmed hits for several molecular targets identified from this screen, inhibitors of PDE4 were numerous.

[2] = tested on: somatostatin, an endogenous cAMP-responsive gene, in human neuroblastoma cells; experiment: Real-time PCR of somatostatin expression, forskolin-stimulated human neuroblastoma cells; type: cell-based; conditions: for effect on expression of CRE-dependent endogenous gene somatostatin: FIG. 2, in words; for increase in forskolin-induced expression of somatostatin: real-time PCR, ΔCt above vehicle alone (FIG. 2B)
Excerpt: FIG. 2B is a bar graph representation depicting results showing that the PDE4 inhibitors rolipram and HT0712 enhance forskolin-induced gene expression in human neuroblastoma cells. Real-time PCR was used to quantify expression of somatostatin, an endogenous cAMP-responsive gene. Expression levels induced by forskolin or by forskolin+drug are quantified as differences in threshold cycle number (ΔCt) above vehicle alone control groups.

CBP^+/− mutant mice = experiment: Object recognition task, long-term memory in CBP+/− mutant mice; type: in vivo; conditions: for 24 hour memory retention versus vehicle-alone group: 3.5 minute training (FIG. 6); for memory retention, drug-treated CBP+/− mutants versus drug-treated wildtype mice / 24 hour memory retention (Discrimination Index) versus vehicle-injected mutants: 0.1 mg/kg i.p. 20 minutes before 15 minute training, tested 24 hours later (FIG. 4); for 24 hour memory retention (Discrimination Index) versus vehicle-injected mutants: p<0.05
Excerpt: (§1) Generation of CBP^+/- mice was described by Oike et al. (Human Molecular Genetics, 8:387-396 (1999)). […] For these studies, animals were generated by crossing CBP^+/- mice to C57BL/6 females (Jackson laboratory). The mice were genotyped with a PCR protocol as described previously (Oike, Y. et al., Human Molecular Genetics, 8:387-396 (1999)). Age-(12 to 14 weeks old by the time of handling) and gender-matched mutant mice and wildtype littermates were used for all experiments. Mice were handled for 3-5 minutes for 5 days. […] The first set was used for experiments summarized in FIGS. 3 and 4 (n=10 per genotype). The second set was used for the experiment summarized in FIG. 5 (wildtype mice, n=20). For each experiment, the same set of animals was used repeatedly with different (new) sets of objects for each repetition. […] (iii) each experimental condition was replicated 2-4 independent times, and replicate days were added to generate final number of subjects. Five-to-eight sessions were performed on each set of mice. Each mouse was trained and tested no more than once per week and with a one-week interval between testing. In experiments with drug-injections (see below), vehicle-injected mice and high/low-dose-injected mice, were counterbalanced. In each experiment, the experimenter was unaware (blind) to the treatment of the subjects during training and testing. […] Mice were presented with two objects, one of which was used during training, and thus was 'familiar' and the other of which was novel (e.g. a small pyramid-shape object). The test objects were divided into ten sets of two “training” plus on “testing” objects, and a new set of objects was used for each training session. After each experimental subject, the apparatus and the objects were cleaned with 90% ethanol, dried and ventilated for a few minutes. […] In addition, vehicle- and drug-injected mice were counterbalanced from experiment to experiment. Such design allowed at least two weeks wash-out time between repeated usages of high doses. […] The experiments were videotaped via an overhead video camera system. Types were reviewed by a blinded observer and the following behavioral parameters were determined: time of exploration of an each object; the total time of exploration of the objects; number of approaches to the objects; and time (latency) to first approach to an object. The discrimination index was determined as described previously (Ennaceur, A. & Aggleton, J. P., Behav. Brain Res., 88:181-193 (1997)). The data were analyzed by Student's unpaired t test using statistical software package ([…] Institute, Inc). All values in the text and figure legends are expressed as mean±SEM.

wildtype mice = experiment: Object recognition task, long-term memory in wildtype mice; type: in vivo; conditions: for 24 hour memory retention versus vehicle-alone group: 3.5 minute training (FIG. 6)
Excerpt: as §1

[3] = Half-life (wash-out consideration); conditions: mouse, in vivo
Protocol: HT0712 was administered intraperitoneally (i.p.) at doses: 0.001 mg/kg; 0.005 mg/kg; 0.01 mg/kg; 0.05 mg/kg; 0.1 mg/kg, 0.15 mg/kg and 0.2 mg/kg. Rolipram (Sigma) was administered i.p. at dose 0.1 mg/kg. Drug compounds were injected with one week interval to allow sufficient wash-out time (the half-life for HT0712 and Rolipram <3 hours). In addition, vehicle- and drug-injected mice were counterbalanced from experiment to experiment. Such design allowed at least two weeks wash-out time between repeated usages of high doses.

normal, young adult mice = conditions: delivered directly to the hippocampus, intraventricularly or intraperitoneally (Scott et al. 2002); cited from earlier work
aged rats = conditions: Barad et al. 1998; cited from earlier work
[4] = i.p., 3.5 minute training, 24-hour memory (FIG. 6)

COc1ccc([C@H]2CNC(=O)[C@H](Cc3cccc(C)c3)C2)cc1OC1CCCC1 [HT0712, (3S,5S)-5-(3-cyclopentyloxy-4-methoxy-phenyl)-3-(3-methyl-benzyl)-piperidin-2-one]
effect on CRE-luciferase expression [1]: robust effects
increase of forskolin-induced CRE-luciferase expression above forskolin alone [1]: 1.9 fold
effect on expression of CRE-dependent endogenous gene somatostatin [2]: robust effects
increase in forskolin-induced expression of somatostatin [2]: 4.6 fold
24 hour memory retention versus vehicle-alone group (CBP^+/− mutant mice; 0.05 mg/kg i.p., p=0.79): did not; also recorded: failed to enhance memory
memory retention, drug-treated CBP+/− mutants versus drug-treated wildtype mice (CBP^+/− mutant mice): did not differ significantly
24 hour memory retention (Discrimination Index) versus vehicle-injected mutants (CBP^+/− mutant mice): restored 24-hour memory; also recorded: significantly higher
24 hour memory retention versus vehicle-alone group (CBP^+/− mutant mice; 0.10 mg/kg i.p., p<0.0001): higher
24 hour memory retention versus vehicle-alone group (CBP^+/− mutant mice; 0.15 mg/kg i.p., p<0.0001): higher
24 hour memory retention versus vehicle-alone group (CBP^+/− mutant mice; 0.2 mg/kg i.p., p<0.0001): higher
dose at which memory enhancement was first seen (initial effective dose) (CBP^+/− mutant mice; [4]): 0.10 mg/kg
peak effective dose (CBP^+/− mutant mice; [4]): 0.15 mg/kg
24 hour memory retention versus vehicle alone (wildtype mice; 0.05 mg/kg i.p. 20 min before 3.5 minute training (FIG. 5), p<0.05): significantly increased; also recorded: significantly higher
24 hour memory retention versus vehicle-alone group (wildtype mice; 0.05 mg/kg i.p., p<0.005): significant enhancement; also recorded: higher
24 hour memory retention versus vehicle alone (wildtype mice; 0.10 mg/kg i.p. 20 min before 3.5 minute training (FIG. 5), p<0.0001): significantly increased; also recorded: significantly higher
24 hour memory retention versus vehicle-alone group (wildtype mice; 0.10 mg/kg i.p., p<0.0001): higher
24 hour memory retention versus vehicle alone (wildtype mice; 0.15 mg/kg i.p. 20 min before 3.5 minute training (FIG. 5), p<0.001): significantly increased; also recorded: significantly higher
24 hour memory retention versus vehicle-alone group (wildtype mice; 0.15 mg/kg i.p., p<0.005): higher
24 hour memory retention versus vehicle-alone group (wildtype mice; 0.2 mg/kg i.p., p<0.005): higher
24 hour memory retention versus vehicle alone (wildtype mice; 0.50 mg/kg i.p., 3.5 minute training (FIG. 5)): failed to produce any memory enhancement
24 hour memory retention versus vehicle alone (wildtype mice; below 0.05 mg/kg i.p., 3.5 minute training (FIG. 5)): failed to produce any memory enhancement
peak effective dose (wildtype mice; [4]): 0.10 mg/kg
half-life [3]: < 3 h
long-term memory formation after contextual fear conditioning (normal, young adult mice): enhanced

COc1ccc(C2CNC(=O)C2)cc1OC1CCCC1 (stereo not drawn) [rolipram, reference compound]
effect on CRE-luciferase expression [1]: robust effects
increase of forskolin-induced CRE-luciferase expression above forskolin alone [1]: 1.9 fold
effect on expression of CRE-dependent endogenous gene somatostatin [2]: robust effects
increase in forskolin-induced expression of somatostatin [2]: 2.3 fold
memory retention, drug-treated CBP+/− mutants versus drug-treated wildtype mice (CBP^+/− mutant mice): did not differ significantly
24 hour memory retention (Discrimination Index) versus vehicle-injected mutants (CBP^+/− mutant mice): restored 24-hour memory; also recorded: significantly higher
half-life [3]: < 3 h
long-term memory formation after contextual fear conditioning (normal, young adult mice): enhanced
age-dependent loss of hippocampal-dependent memory and cellular long-term potentiation (aged rats): ameliorates
